US20050170392A1, “OAT3 transporters expressed in blood brain barrier cells” (priority 2004, published 2005)

How the values were obtained:
OAT3 = target: T1, OAT3 (Homo sapiens, UniProt Q8TCC7); conditions: cited from earlier work
T1 sequence (Q8TCC7 1-542): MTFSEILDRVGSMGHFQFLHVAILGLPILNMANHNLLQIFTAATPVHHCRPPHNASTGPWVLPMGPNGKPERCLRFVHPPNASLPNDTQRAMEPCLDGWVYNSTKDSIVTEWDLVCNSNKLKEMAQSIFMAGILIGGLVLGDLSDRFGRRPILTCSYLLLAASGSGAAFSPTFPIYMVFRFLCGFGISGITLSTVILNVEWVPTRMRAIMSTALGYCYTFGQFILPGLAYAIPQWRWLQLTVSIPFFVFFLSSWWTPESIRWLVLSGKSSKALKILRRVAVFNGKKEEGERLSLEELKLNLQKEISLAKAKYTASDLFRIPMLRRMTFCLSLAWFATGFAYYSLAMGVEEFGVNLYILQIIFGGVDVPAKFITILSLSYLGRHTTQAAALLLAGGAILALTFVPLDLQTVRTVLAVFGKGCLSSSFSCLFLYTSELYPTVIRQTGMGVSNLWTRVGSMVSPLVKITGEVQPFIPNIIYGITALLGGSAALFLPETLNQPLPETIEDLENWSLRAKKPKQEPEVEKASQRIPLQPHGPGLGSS

PgP = target: T2, PgP (Homo sapiens, UniProt P08183); experiment: Cellular transwell monolayer efflux assay, MDCK cells transfected with TREx-PgP; assay type: in vitro ADME
T2 construct: expressed in transfected cells; host or cells: MDCK cells
T2 sequence (P08183 whole entry): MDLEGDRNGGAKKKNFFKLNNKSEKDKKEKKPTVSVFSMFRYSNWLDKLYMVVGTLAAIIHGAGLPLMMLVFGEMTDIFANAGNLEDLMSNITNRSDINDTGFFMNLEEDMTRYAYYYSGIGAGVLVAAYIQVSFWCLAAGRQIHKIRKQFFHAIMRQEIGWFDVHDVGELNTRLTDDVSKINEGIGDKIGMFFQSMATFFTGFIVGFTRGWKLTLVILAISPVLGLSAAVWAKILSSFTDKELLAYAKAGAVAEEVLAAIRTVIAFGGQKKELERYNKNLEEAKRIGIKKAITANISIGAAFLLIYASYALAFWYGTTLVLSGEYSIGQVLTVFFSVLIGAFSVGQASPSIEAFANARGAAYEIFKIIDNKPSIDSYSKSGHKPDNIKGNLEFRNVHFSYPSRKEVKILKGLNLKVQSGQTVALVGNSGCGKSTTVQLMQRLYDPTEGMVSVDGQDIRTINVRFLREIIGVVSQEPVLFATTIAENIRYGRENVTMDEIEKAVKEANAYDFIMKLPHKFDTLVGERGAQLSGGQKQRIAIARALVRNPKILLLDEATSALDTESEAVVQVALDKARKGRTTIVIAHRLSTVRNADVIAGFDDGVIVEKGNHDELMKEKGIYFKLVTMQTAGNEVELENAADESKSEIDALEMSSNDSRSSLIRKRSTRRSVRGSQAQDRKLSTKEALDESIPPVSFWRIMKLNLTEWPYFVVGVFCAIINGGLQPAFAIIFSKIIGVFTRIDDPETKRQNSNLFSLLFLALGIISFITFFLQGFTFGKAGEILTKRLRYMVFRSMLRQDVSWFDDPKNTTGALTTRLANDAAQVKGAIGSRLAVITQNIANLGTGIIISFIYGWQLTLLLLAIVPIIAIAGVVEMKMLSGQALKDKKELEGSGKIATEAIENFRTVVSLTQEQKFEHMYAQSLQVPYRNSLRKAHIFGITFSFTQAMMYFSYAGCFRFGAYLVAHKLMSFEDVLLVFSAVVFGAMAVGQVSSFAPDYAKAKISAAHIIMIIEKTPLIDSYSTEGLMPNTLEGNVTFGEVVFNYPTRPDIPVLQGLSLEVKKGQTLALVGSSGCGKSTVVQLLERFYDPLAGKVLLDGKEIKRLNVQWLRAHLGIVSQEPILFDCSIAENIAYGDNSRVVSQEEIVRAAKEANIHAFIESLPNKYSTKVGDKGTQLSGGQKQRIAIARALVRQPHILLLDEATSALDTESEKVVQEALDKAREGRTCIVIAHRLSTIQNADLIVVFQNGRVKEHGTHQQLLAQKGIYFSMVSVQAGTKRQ
Description: A third type of efflux transporter assay is the cellular transwell monolayer efflux assay. […] The cells form a polarized monolayer. The transwell dishes have apical and basolateral chambers that are separated by the filter membrane on which the polarized monolayer is situated. Assays are performed by placing a test compound in either the apical or basolateral chamber, followed by sampling the opposite chamber after a predetermined period of time such as 60-120 minutes and measuring the amount of the test compound. The test compound can be measured by methods such as radiolabel detection or LC-MS-MS analysis. Assays are performed in the presence and absence of an efflux transporter inhibitor or competitor. Efflux transporter inhibitors or competitors increase apical to basolateral transport and decrease basolateral to apical transport of compounds that are efflux transporter substrates. Apparent permeability (Papp) of test compounds is measured. […] Test compounds that generate ratios between 1.5 and 2.0 require additional testing to determine if they are efflux transporter substrates.
MDCK cells transfected with the tetracycline-inducible TREx-PgP expression vector were seeded on polycarbonate filter membranes in transwell dishes and grown for 3-5 days, yielding a polarized monolayer with tight junctions between cells. […] The left set of bars depicts apical to basolateral transport, while the right set of bars depicts basolateral to apical transport.

[1] = 2.5 nM 3H-vinblastine, in the presence of 250 μM verapamil versus absence, FIG. 6

| apical to basolateral transport (PgP; [1]) | basolateral to apical transport (PgP; [1]) | efflux transporter substrate status (PgP; conclusion from transwell transport with and without verapamil) | Structure (SMILES) | Reported Affinity for OAT3 (OAT3) [mM] |
| --- | --- | --- | --- | --- |
|  |  |  | CC1(C)S[C@@H]2[C@H](NC(=O)Cc3ccccc3)C(=O)N2[C@H]1C(=O)O [Benzylpennicillin] | 0.3 |
|  |  |  | C[C@]12CC[C@@H]3c4ccc(OS(=O)(=O)O)cc4CC[C@H]3[C@@H]1CCC2=O [Estrone-3-sulphate] | 0.04 |
|  |  |  | C[C@@H]1Cc2c(Cl)cc(C(=O)N[C@@H](Cc3ccccc3)C(=O)O)c(O)c2C(=O)O1 [Ochratoxin A] | 0.05 |
|  |  |  | CCCN(CCC)S(=O)(=O)c1ccc(C(=O)O)cc1 [Probenecid] | 0.05 |
| strongly increased | strongly decreased | substrate of PgP | CC[C@]1(O)C[C@@H]2CN(CCc3c([nH]c4ccccc34)[C@@](C(=O)OC)(c3cc4c(cc3OC)N(C)[C@H]3[C@@](O)(C(=O)OC)[C@H](OC(C)=O)[C@]5(CC)C=CCN6CC[C@]43[C@@H]65)C2)C1 [^3H-vinblastine, vinblastine] |  |
